Data reported in ChEMBL document CHEMBL5143523, “Construction and activity evaluation of novel benzodioxane derivatives as dual-target antifungal inhibitors” (Eur J Med Chem, 2022).
Converted amounts (≈) assume the structure as drawn. The source made the active and inactive calls. No cut-off for these calls is given here.

Experiments:
[1] = tested on: Candida albicans; assay: Antifungal activity against Candida albicans ATCC 10231 assessed as fungal growth inhibition measured after 72 hrs by CLSI protocol based liquid medium dilution method; type: functional
[2] = tested on: Nakaseomyces glabratus; assay: Antifungal activity against Candida glabrata ATCC 0001 assessed as fungal growth inhibition measured after 72 hrs by CLSI protocol based liquid medium dilution method; type: functional
[3] = tested on: Candida tropicalis; assay: Antifungal activity against Candida tropicalis ATCC 1369 assessed as fungal growth inhibition measured after 72 hrs by CLSI protocol based liquid medium dilution method; type: functional
[4] = tested on: Aspergillus fumigatus; assay: Antifungal activity against Aspergillus fumigatus KM8001 assessed as fungal growth inhibition measured after 72 hrs by CLSI protocol based liquid medium dilution method; type: functional
[5] = tested on: Candida albicans; assay: Antifungal activity against fluconazole resistant Candida albicans strain 17# assessed as fungal growth inhibition measured after 72 hrs by CLSI protocol based liquid medium dilution method; type: functional
[6] = tested on: Candida albicans; assay: Antifungal activity against fluconazole resistant Candida albicans strain CaR assessed as fungal growth inhibition measured after 72 hrs by CLSI protocol based liquid medium dilution method; type: functional
[7] = tested on: Candida albicans; assay: Antifungal activity against fluconazole resistant Candida albicans strain 103 assessed as fungal growth inhibition measured after 72 hrs by CLSI protocol based liquid medium dilution method; type: functional
[8] = tested on: Candida albicans; assay: Antifungal activity against fluconazole resistant Candida albicans strain 904 assessed as fungal growth inhibition measured after 72 hrs by CLSI protocol based liquid medium dilution method; type: functional
[9] = tested on: Candida albicans; assay: Induction of apoptosis in Candida albicans ATCC SC5314 cells assessed as live cells at 8 ug/ml incubated for 72 hrs by Annexin V-FITC/PI staining based flow cytometry method (reference value: 95.56%); type: functional; conditions: dose 8 µg/ml
[10] = tested on: Candida albicans; assay: Induction of apoptosis in Candida albicans ATCC SC5314 cells assessed as early apoptotic cells at 8 ug/ml incubated for 72 hrs by Annexin V-FITC/PI staining based flow cytometry method (reference value: 0.56%); type: functional; conditions: dose 8 µg/ml
[11] = tested on: Candida albicans; assay: Induction of apoptosis in Candida albicans ATCC SC5314 cells assessed as necrotic cells at 8 ug/ml incubated for 72 hrs by Annexin V-FITC/PI staining based flow cytometry method (reference value: 3.76%); type: functional; conditions: dose 8 µg/ml
[12] = tested on: Candida albicans; assay: Induction of apoptosis in Candida albicans ATCC SC5314 cells assessed as late apoptotic cells at 8 ug/ml incubated for 72 hrs by Annexin V-FITC/PI staining based flow cytometry method (reference value: 0.12%); type: functional; conditions: dose 8 µg/ml
[13] = tested on: Candida albicans; assay: Antifungal activity against Candida albicans ATCC SC5314 assessed as decrease in ergosterol content at 4 ug/ml incubated for 48 hrs by LC-MS analysis (reference value: 90.6%); type: functional; design: scale not given: the % may be the effect or the level left; conditions: dose 4 µg/ml
[14] = tested on: Candida albicans; assay: Antifungal activity against Candida albicans ATCC SC5314 assessed as change in squalene level at 4 ug/ml incubated for 48 hrs by LC-MS analysis; type: functional; conditions: dose 4 µg/ml
[15] = tested on: Candida albicans; assay: Antifungal activity against Candida albicans ATCC SC5314 assessed as change in eburicol level at 4 ug/ml incubated for 48 hrs by LC-MS analysis (reference value: 1.4%); type: functional; conditions: dose 4 µg/ml
[16] = tested on: Candida albicans; assay: Antifungal activity against Candida albicans ATCC SC5314 assessed as change in unknown sterol level at 4 ug/ml incubated for 48 hrs by LC-MS analysis (reference value: 4.3%); type: functional; conditions: dose 4 µg/ml
[17] = molecular target: Lanosterol 14-alpha demethylase (Candida albicans (strain SC5314 / ATCC MYA-2876) (Yeast), UniProt P10613); assay: Inhibition of CYP51 in Candida albicans ATCC SC5314 incubated for 30 mins using eburicol as substrate in presence of NADPH by HPLC analysis
[18] = Hepatotoxicity in mouse infected with Candida albicans ATCC SC5314 assessed as change in plasma ALT level at 4 mg/kg, ip administered ever other day for 12 days; type: toxicity, organism-based; conditions: in vivo, 288 h, time 12 day
[19] = Nephrotoxicity in mouse infected with Candida albicans ATCC SC5314 assessed as change in plasma BUN level at 4 mg/kg, ip administered ever other day for 12 days; type: toxicity, organism-based; conditions: in vivo, 288 h, time 12 day
[20] = Drug uptake in fluconazole resistant Candida albicans strain 901 at 4 ug/ml by fluorescence microscopy; type: ADME; conditions: dose 4 µg/ml
[21] = tested on: Candida albicans; assay: Induction of morphological changes in Candida albicans assessed as structural damage in fungal cell membrane at 4 ug/ml measured after 48 hrs by TEM analysis; type: functional, organism-based; conditions: dose 4.0 µg/ml
[22] = tested on: Candida albicans; assay: Induction of morphological changes in Candida albicans assessed as structural damage in fungal cell wall at 4 ug/ml measured after 48 hrs by TEM analysis; type: functional, organism-based; conditions: dose 4.0 µg/ml
[23] = tested on: Candida albicans; assay: Induction of morphological changes in Candida albicans assessed as decrease in osmotic pressure of cells at 4 ug/ml measured after 72 hrs by TEM analysis; type: functional, organism-based; conditions: dose 4.0 µg/ml
[24] = tested on: Candida albicans; assay: Induction of morphological changes in Candida albicans assessed as appearance of edema cavitation at 4 ug/ml measured after 72 hrs by TEM analysis; type: functional, organism-based; conditions: dose 4.0 µg/ml
[25] = tested on: Candida albicans; assay: Induction of morphological changes in Candida albicans assessed as disappearance of endoplasmic reticulum at 4 ug/ml measured after 72 hrs by TEM analysis; type: functional, organism-based; conditions: dose 4.0 µg/ml
[26] = tested on: Candida albicans; assay: Induction of morphological changes in Candida albicans assessed as enlargement of nucleus at 4 ug/ml measured after 72 hrs by TEM analysis; type: functional, organism-based; conditions: dose 4.0 µg/ml
[27] = tested on: Mus musculus; assay: In vivo antifungal activity against Candida albicans ATCC SC5314 infected mouse assessed as reduction in fungal infection region at 4 mg/kg, ip administered ever other day for 12 days; type: functional, organism-based; conditions: time 12.0 day
[28] = tested on: Mus musculus; assay: In vivo antifungal activity against Candida albicans ATCC SC5314 infected mouse assessed as increase in body weight at 4 mg/kg, ip administered ever other day for 12 days; type: functional, organism-based; conditions: time 12.0 day
[29] = tested on: Mus musculus; assay: In vivo antifungal activity against Candida albicans ATCC SC5314 infected mouse assessed as regular arrangement of endothelial tissue at 4 mg/kg, ip administered ever other day for 12 days by hematoxyin-eosin staining based microscopic analysis; type: functional, organism-based; conditions: time 12.0 day
[30] = tested on: Mus musculus; assay: In vivo antifungal activity against Candida albicans ATCC SC5314 infected mouse model assessed as reduction in nuclear aggregation at 4 mg/kg, ip administered ever other day for 12 days by hematoxyin-eosin staining based microscopic analysis; type: functional, organism-based; conditions: time 12.0 day
[31] = tested on: Mus musculus; assay: In vivo antifungal activity against Candida albicans ATCC SC5314 infected mouse model assessed as regular arrangement of intercellular space at 4 mg/kg, ip administered ever other day for 12 days by hematoxyin-eosin staining based microscopic analysis; type: functional, organism-based; conditions: time 12.0 day
[32] = tested on: Mus musculus; assay: In vivo antifungal activity against Candida albicans ATCC SC5314 infected mouse model assessed as disappearance of pathogenic fungi at 4 mg/kg, ip administered ever other day for 12 days by hematoxyin-eosin staining based microscopic analysis; type: functional, organism-based; conditions: time 12.0 day
[33] = Toxicity in mouse infected with Candida albicans ATCC SC5314 assessed as pathological changes in liver at 4 mg/kg, ip administered ever other day for 12 days by hematoxylin and eosin staining based histopathological analysis; type: organism-based; conditions: in vivo, 288 h, time 12 day
[34] = Toxicity in mouse infected with Candida albicans ATCC SC5314 assessed as pathological changes in lung at 4 mg/kg, ip administered ever other day for 12 days by hematoxylin and eosin staining based histopathological analysis; type: organism-based; conditions: in vivo, 288 h, time 12 day
[35] = Toxicity in mouse infected with Candida albicans ATCC SC5314 assessed as pathological changes in kidney at 4 mg/kg, ip administered ever other day for 12 days by hematoxylin and eosin staining based histopathological analysis; type: organism-based; conditions: in vivo, 288 h, time 12 day

Chain of Lanosterol 14-alpha demethylase (P10613 whole entry): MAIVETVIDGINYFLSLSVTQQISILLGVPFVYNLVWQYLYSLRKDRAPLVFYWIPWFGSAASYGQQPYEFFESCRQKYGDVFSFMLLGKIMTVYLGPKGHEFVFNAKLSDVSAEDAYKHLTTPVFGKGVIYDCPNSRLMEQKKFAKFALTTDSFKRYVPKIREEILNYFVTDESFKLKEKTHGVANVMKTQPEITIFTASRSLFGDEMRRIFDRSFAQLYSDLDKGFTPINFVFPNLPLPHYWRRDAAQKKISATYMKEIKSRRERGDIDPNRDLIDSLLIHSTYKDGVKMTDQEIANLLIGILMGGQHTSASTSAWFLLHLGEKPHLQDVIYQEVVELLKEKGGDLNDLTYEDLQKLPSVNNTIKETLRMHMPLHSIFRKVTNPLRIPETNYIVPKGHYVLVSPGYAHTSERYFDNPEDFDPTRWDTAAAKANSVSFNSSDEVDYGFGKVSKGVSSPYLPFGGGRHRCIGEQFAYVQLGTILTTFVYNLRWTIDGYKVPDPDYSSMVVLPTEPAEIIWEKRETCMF

CC(C)[C@H](NC(=O)c1cccc2c1OCCO2)C(=O)N[C@@H](Cn1cncn1)c1ccccc1
MIC50 [1]: 0.125 µg/mL (≈ 0.278 µM) | MIC50 [2]: 0.25 µg/mL (≈ 0.556 µM) | MIC50 [3]: 0.125 µg/mL (≈ 0.278 µM) | MIC50 [4]: 2 µg/mL (≈ 4.45 µM) | MIC50 [5]: 1 µg/mL (≈ 2.22 µM) | MIC50 [6]: 0.5 µg/mL (≈ 1.11 µM) | MIC50 [7]: 0.5 µg/mL (≈ 1.11 µM) | MIC50 [8]: 2 µg/mL (≈ 4.45 µM) | Activity [9]: 54.5% | Activity [10]: 0.41% | Activity [11]: 43.31% | Activity [12]: 1.78% | Activity [13]: 20.8% | Activity [14]: 27.5% | Activity [15]: 28.9% | Activity [16]: 6.4% | IC50 [17]: 220 nM | Activity [18]: 50.5 IU/L | Activity [19]: 15.8 mmol/L | Drug uptake [20]: Active | Activity [21]: Active | Activity [22]: Active | Activity [23]: Active | Activity [24]: Active | Activity [25]: Active | Activity [26]: Active | Activity [27]: Active | Activity [28]: Active | Activity [29]: Active | Activity [30]: Active | Activity [31]: Active | Activity [32]: Active | Activity [33]: Non-Toxic | Activity [34]: Non-Toxic | Activity [35]: Non-Toxic
